According to patent US20140005163A1 (NOVARTIS AG, priority 2010, published 2014):

Key:
[1] = test system: PKB Ser473 phosphorylation in Rat1-myr-HA-p110 alpha cells; assay: Reverse protein array assay, PKB Ser473 phosphorylation in Rat1-myr-p110 alpha cells; type: cell-based; conditions: 0.5 h, pAkt Ser473, 30 minutes compound incubation, read-out: p-PKB IC50
How it was run: (§1)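 Cells: Rat1-myr-HA-p110 alpha/beta/delta, seeded ≥20 h. Lysis on ice 10 min; reverse-phase protein array, 4 lysate dilutions; fluorescence read, relative intensity.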

[2] = molecular target: T1, PI3K delta (Homo sapiens, UniProt O00329); assay: PI3K delta kinase assay (Kinase-Glo luminescence); type: biochemical
T1 construct: for the full-length p110-d subunit are generated and fused by overlapping PCR; p85(iSH2) fusion partner (see partner chain) (N); His tag (C); made in house; host or cells: baculovirus; Tn5 (Trichoplusia ni) or TiniPro insect cells
How it was run: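 Kinase-Glo luminescence read-out of ATP remaining after 60 min at RT. Enzyme: 10 nM BV1060 (p85 iSH2–p110δ fusion, His-tagged); substrate 10 μg/mL PI, ATP 1 μM final; Tris pH 7.5 buffer with MgCl2, NaCl, CHAPS, DTT. IC50 from 4-parameter logistic fit over 8 concentrations.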

[3] = molecular target: T2, PI3K alpha (Homo sapiens, UniProt P42336); assay: PI3K alpha kinase assay (Kinase-Glo luminescence); type: biochemical
T2 construct: p85(iSH2) fusion partner (see partner chain) (N); His tag (C); made in house; host or cells: baculovirus; Tn5 (Trichoplusia ni) or TiniPro insect cells
How it was run: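 Read-out: Kinase-Glo luminescence of ATP left after 60 min at room temperature. Conditions: 10 nM PI3Kα (EMV B1075), 1 μM ATP, 10 μg/mL PI substrate, Tris pH 7.5 buffer with MgCl2, NaCl, CHAPS and DTT. IC50s fitted with a four-parameter logistic model.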

[4] = molecular target: T3, PI3K beta (Homo sapiens, UniProt P42338); assay: PI3K beta kinase assay (Kinase-Glo luminescence); type: biochemical
T3 construct: for the full-length p110-b subunit are generated and fused by overlapping PCR; p85(iSH2) fusion partner (see partner chain) (N); His tag (C); made in house; host or cells: baculovirus; Tn5 (Trichoplusia ni) or TiniPro insect cells
How it was run: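 Full-length p110β with a Gly-linked p85 iSH2 and a C-terminal His tag (BV949, 25 nM) was incubated with 10 μg/mL phosphatidylinositol and 1 μM ATP in 10 mM Tris pH 7.5, 3 mM MgCl2, 50 mM NaCl, 0.05% CHAPS, 1 mM DTT for 60 min at room temperature. Residual ATP was read by Kinase-Glo luminescence.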

[5] = test system: PKB Ser473 phosphorylation in Rat1-myr-HA-p110 beta cells; assay: Reverse protein array assay, PKB Ser473 phosphorylation in Rat1-myr-p110 beta cells; type: cell-based; conditions: 0.5 h, pAkt Ser473, 30 minutes incubation, read-out: p-PKB IC50
How it was run: as §1

T1 sequence (O00329 with tags, fused parts or gaps limits assumed): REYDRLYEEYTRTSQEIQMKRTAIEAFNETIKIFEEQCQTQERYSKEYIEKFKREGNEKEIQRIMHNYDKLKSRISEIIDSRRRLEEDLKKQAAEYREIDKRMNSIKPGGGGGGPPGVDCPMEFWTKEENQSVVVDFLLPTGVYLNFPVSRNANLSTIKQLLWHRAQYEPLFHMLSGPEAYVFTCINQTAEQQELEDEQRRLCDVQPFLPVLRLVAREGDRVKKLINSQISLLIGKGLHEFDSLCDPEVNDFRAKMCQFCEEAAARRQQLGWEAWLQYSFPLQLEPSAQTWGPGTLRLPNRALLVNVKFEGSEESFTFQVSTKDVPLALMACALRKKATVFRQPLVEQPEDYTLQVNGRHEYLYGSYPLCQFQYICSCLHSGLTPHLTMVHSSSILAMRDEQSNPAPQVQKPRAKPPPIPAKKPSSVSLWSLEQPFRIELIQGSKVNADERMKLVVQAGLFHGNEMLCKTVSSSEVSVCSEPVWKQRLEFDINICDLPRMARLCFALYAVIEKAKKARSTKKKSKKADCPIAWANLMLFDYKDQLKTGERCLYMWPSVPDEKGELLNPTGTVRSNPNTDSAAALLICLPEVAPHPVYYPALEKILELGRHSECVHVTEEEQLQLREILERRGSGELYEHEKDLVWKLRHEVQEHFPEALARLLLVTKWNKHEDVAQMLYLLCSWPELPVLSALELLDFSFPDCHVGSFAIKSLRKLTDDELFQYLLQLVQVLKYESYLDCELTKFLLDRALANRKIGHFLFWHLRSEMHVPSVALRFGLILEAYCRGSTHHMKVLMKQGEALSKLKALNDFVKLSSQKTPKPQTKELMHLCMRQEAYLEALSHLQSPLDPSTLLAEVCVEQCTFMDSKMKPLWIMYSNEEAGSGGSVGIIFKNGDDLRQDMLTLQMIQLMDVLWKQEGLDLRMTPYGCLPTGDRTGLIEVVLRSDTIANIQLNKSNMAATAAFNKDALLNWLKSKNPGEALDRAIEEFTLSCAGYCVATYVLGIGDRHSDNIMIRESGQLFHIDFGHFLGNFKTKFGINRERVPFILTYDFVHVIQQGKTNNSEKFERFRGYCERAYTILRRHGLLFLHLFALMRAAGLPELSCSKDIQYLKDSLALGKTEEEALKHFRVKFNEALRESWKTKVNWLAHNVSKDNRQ
T2 sequence (P42336 with tags, fused parts or gaps limits assumed): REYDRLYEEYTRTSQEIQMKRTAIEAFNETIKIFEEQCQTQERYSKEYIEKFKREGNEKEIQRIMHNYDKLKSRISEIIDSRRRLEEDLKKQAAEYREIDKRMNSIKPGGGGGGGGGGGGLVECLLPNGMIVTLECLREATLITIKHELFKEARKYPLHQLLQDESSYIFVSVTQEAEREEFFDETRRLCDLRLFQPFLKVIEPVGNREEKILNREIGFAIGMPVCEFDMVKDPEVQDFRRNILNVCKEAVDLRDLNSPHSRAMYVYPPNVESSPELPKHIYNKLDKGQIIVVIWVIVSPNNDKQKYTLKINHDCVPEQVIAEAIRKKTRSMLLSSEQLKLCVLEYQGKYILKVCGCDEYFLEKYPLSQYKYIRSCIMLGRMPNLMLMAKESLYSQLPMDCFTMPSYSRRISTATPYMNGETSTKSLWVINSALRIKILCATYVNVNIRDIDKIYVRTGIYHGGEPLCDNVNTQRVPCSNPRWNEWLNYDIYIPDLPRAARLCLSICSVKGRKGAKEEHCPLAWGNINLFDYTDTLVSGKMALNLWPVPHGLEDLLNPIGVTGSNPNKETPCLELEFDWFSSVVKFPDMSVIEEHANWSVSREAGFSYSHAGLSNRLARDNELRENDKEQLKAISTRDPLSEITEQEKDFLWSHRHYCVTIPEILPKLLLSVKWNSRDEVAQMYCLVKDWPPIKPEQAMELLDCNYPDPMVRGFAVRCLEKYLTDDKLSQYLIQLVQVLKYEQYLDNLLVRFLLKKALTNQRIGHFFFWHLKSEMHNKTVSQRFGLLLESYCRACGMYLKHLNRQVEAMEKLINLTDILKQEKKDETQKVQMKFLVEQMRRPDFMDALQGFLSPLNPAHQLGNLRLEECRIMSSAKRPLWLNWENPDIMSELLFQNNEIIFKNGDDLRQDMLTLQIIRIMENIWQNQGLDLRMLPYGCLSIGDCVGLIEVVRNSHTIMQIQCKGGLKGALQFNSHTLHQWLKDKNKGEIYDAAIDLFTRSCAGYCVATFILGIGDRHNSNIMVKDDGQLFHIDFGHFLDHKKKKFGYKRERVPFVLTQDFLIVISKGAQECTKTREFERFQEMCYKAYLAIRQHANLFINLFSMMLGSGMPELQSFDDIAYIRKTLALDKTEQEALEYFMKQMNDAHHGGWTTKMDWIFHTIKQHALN
T3 sequence (P42338 with tags, fused parts or gaps limits assumed): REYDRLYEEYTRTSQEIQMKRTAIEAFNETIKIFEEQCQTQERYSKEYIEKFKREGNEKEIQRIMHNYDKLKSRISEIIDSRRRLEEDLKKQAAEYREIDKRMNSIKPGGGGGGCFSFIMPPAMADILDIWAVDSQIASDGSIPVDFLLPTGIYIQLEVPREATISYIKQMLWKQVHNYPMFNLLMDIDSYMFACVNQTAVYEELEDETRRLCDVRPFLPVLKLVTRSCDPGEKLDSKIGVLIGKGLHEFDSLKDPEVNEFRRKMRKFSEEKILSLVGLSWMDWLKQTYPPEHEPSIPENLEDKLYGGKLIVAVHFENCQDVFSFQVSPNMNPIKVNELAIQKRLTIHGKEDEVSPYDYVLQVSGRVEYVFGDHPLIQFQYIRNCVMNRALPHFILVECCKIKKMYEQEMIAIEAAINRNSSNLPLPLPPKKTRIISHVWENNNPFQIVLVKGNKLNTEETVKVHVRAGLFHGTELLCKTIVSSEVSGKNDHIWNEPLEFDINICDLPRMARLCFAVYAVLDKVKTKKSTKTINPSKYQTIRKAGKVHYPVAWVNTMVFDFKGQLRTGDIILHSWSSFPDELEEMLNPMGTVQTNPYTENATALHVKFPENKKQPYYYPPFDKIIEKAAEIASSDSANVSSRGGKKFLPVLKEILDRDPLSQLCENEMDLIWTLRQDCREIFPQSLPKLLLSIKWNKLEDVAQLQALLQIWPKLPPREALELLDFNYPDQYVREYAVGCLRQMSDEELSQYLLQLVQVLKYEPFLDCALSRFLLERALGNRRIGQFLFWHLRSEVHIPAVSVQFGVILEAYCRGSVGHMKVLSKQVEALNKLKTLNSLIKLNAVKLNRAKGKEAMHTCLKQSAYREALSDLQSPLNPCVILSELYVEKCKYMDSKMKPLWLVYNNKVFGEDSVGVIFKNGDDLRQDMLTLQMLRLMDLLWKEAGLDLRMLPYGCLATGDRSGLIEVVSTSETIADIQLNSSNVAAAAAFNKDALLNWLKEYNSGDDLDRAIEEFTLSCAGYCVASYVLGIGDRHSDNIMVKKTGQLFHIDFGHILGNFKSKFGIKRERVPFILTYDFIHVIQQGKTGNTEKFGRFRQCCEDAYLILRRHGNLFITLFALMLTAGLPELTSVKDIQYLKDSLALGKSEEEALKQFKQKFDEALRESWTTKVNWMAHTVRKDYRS

SMILES	IC50 [1]	IC50 [2]	IC50 [3]	IC50 [4]	IC50 [5]
Cc1nn(C)cc1-n1c(=O)n(C)c2cnc3ccc(-c4cnc(N)c(F)c4)cc3c21 [Example 142.2, 8-(6-Amino-5-fluoro-pyridin-3-yl)-1-(1,3-dimethyl-1H-pyrazol-4-yl)-3-methyl-1,3-dihydro-imidazo[4,5-c]quinolin-2-one]	6 nM	33 nM	18 nM	287 nM	11 nM
[2H]C([2H])([2H])Nc1ncc(-c2ccc3ncc4c(c3c2)n(-c2c(C)nn(C)c2C)c(=O)n4C)cc1C(F)(F)F [Example 143, 3-Methyl-8-(6-trideuteromethylamino-5-trifluoromethyl-pyridin-3-yl)-1-(1,3,5-trimethyl-1H-pyrazol-4-yl)-1,3-dihydro-imidazo[4,5-c]quinolin-2-one]	40 nM	10 nM	19 nM	111 nM	57 nM
CCNc1ncc(-c2ccc3ncc4c(c3c2)n(-c2c(C)nn(C)c2C)c(=O)n4C)cc1C(F)(F)F [Example 145.1, 8-(6-Ethylamino-5-trifluoromethyl-pyridin-3-yl)-3-methyl-1-(1,3,5-trimethyl-1H-pyrazol-4-yl)-1,3-dihydro-imidazo[4,5-c]quinolin-2-one]	69 nM	18 nM	42 nM	162 nM	168 nM
CNc1ncc(-c2ccc3ncc4c(c3c2)n(-c2cn(C(C)C)nc2C)c(=O)n4C)cc1Cl [Example 146.3, 8-(5-Chloro-6-methylamino-pyridin-3-yl)-1-(1-isopropyl-3-methyl-1H-pyrazol-4-yl)-3-methyl-1,3-dihydro-imidazo[4,5-c]quinolin-2-one]	20 nM	14 nM	50 nM	207 nM	119 nM
CNc1ncc(-c2ccc3ncc4c(c3c2)n(-c2c(C)noc2C)c(=O)n4C)cc1Cl [Example 146.6, 8-(5-Chloro-6-methylamino-pyridin-3-yl)-1-(3,5-dimethyl-isoxazol-4-yl)-3-methyl-1,3-dihydro-imidazo[4,5-c]quinolin-2-one]	172 nM	10 nM	92 nM	281 nM	428 nM
CCNc1ncc(-c2ccc3ncc4c(c3c2)n(-c2cn(C)nc2C)c(=O)n4C)cc1Cl [Example 147, 8-(5-Chloro-6-ethylamino-pyridin-3-yl)-1-(1,3-dimethyl-1H-pyrazol-4-yl)-3-methyl-1,3-dihydro-imidazo[4,5-c]quinolin-2-one]	17 nM	8 nM	25 nM	114 nM	30 nM
Cc1nn(C)cc1-n1c(=O)n(C)c2cnc3ccc(-c4cnc(F)c(N(C)C)c4)cc3c21 [Example 151, 8-(5-Dimethylamino-6-fluoro-pyridin-3-yl)-1-(1,3-dimethyl-1H-pyrazol-4-yl)-3-methyl-1,3-dihydro-imidazo[4,5-c]quinolin-2-one]	21 nM	5 nM	6 nM	21 nM	22 nM
Cc1nn(C)cc1-n1c(=O)n(C)c2cnc3ccc(-c4cnc(Cl)c(N)c4)cc3c21 [Example 152.2, 8-(5-Amino-6-chloro-pyridin-3-yl)-1-(1,3-dimethyl-1H-pyrazol-4-yl)-3-methyl-1,3-dihydro-imidazo[4,5-c]quinolin-2-one]	< 5 nM	28 nM	17 nM	33 nM	10 nM
CCNc1cc(-c2ccc3ncc4c(c3c2)n(-c2cn(C)nc2C)c(=O)n4C)cnc1COC [Example 156, 1-(1,3-Dimethyl-1H-pyrazol-4-yl)-8-(5-ethylamino-6-methoxymethyl-pyridin-3-yl)-3-methyl-1,3-dihydro-imidazo[4,5-c]quinolin-2-one]	10 nM	17 nM	16 nM	29 nM	5 nM
CNc1cc(-c2ccc3ncc4c(c3c2)n(-c2cn(C)nc2C)c(=O)n4C)cnc1CO [Example 158.1, 1-(1,3-Dimethyl-1H-pyrazol-4-yl)-8-(6-hydroxymethyl-5-methylamino-pyridin-3-yl)-3-methyl-1,3-dihydro-imidazo[4,5-c]quinolin-2-one]	6 nM	15 nM	9 nM	10 nM	17 nM
CNc1cc(-c2ccc3ncc4c(c3c2)n(-c2c(C)nn(C)c2C)c(=O)n4C)cnc1CO [Example 158.4, 8-(6-Hydroxymethyl-5-methylamino-pyridin-3-yl)-3-methyl-1-(1,3,5-trimethyl-1H-pyrazol-4-yl)-1,3-dihydro-imidazo[4,5-c]quinolin-2-one]	114 nM	11 nM	72 nM	112 nM	88 nM
CNc1cc(-c2ccc3ncc4c(c3c2)n(-c2cn(C)nc2Cl)c(=O)n4C)cnc1COC [Example 160.1, 1-(3-Chloro-1-methyl-1H-pyrazol-4-yl)-8-(6-methoxymethyl-5-methylamino-pyridin-3-yl)-3-methyl-1,3-dihydro-imidazo[4,5-c]quinolin-2-one]	< 5 nM	< 3 nM	14 nM	17 nM	< 5 nM
CCOCc1cc(-c2ccc3ncc4c(c3c2)n(-c2cn(CC)nc2C)c(=O)n4C)cnc1N [Example 166.2, 8-(6-Amino-5-ethoxymethyl-pyridin-3-yl)-1-(1-ethyl-3-methyl-1H-pyrazol-4-yl)-3-methyl-1,3-dihydro-imidazo[4,5-c]quinolin-2-one]	38 nM	7 nM	15 nM	81 nM	86 nM
COCc1cc(-c2ccc3ncc4c(c3c2)n(-c2cn(C(C)C)nc2C)c(=O)n4C)cnc1N [Example 168.1, 8-(6-Amino-5-methoxymethyl-pyridin-3-yl)-1-(1-isopropyl-3-methyl-1H-pyrazol-4-yl)-3-methyl-1,3-dihydro-imidazo[4,5-c]quinolin-2-one]	20 nM	5 nM	14 nM	34 nM	25 nM
CNc1ncc(-c2ccc3ncc4c(c3c2)n(-c2cn(C(C)C)nc2C)c(=O)n4C)cc1CO [Example 171, 8-(5-Hydroxymethyl-6-methylamino-pyridin-3-yl)-1-(1-isopropyl-3-methyl-1H-pyrazol-4-yl)-3-methyl-1,3-dihydro-imidazo[4,5-c]quinolin-2-one]	9 nM	14 nM	32 nM	145 nM	< 5 nM
Cc1nn(C)cc1-n1c(=O)n(C)c2cnc3ccc(-c4cncc(NC(C)C)c4)cc3c21 [Example 177.1, 1-(1,3-Dimethyl-1H-pyrazol-4-yl)-8-(5-isopropylamino-pyridin-3-yl)-3-methyl-1,3-dihydro-imidazo[4,5-c]quinolin-2-one]	9 nM	12 nM	14 nM	18 nM	16 nM
CCn1cc(-n2c(=O)n(C)c3cnc4ccc(-c5cncc(NC)c5)cc4c32)c(C)n1 [Example 180.1, 1-(1-Ethyl-3-methyl-1H-pyrazol-4-yl)-3-methyl-8-(5-methylamino-pyridin-3-yl)-1,3-dihydro-imidazo[4,5-c]quinolin-2-one]	< 5 nM	20 nM	41 nM	42 nM	< 5 nM
Cc1nn(C)cc1-n1c(=O)n(C)c2cnc3ccc(-c4cncc(OCCF)c4)cc3c21 [Example 181, 1-(1,3-Dimethyl-1H-pyrazol-4-yl)-8-[5-(2-fluoro-ethoxy)-pyridin-3-yl]-3-methyl-1,3-dihydro-imidazo[4,5-c]quinolin-2-one]	51 nM	24 nM	12 nM	13 nM	54 nM
Cc1nn(C)cc1-n1c(=O)n(C)c2cnc3ccc(-c4cncc(OC(CF)CF)c4)cc3c21 [Example 182, 1-(1,3-Dimethyl-1H-pyrazol-4-yl)-8-[5-(2-fluoro-1-fluoromethyl-ethoxy)-pyridin-3-yl]-3-methyl-1,3-dihydro-imidazo[4,5-c]quinolin-2-one]	15 nM	8 nM	9 nM	11 nM	18 nM
